This is an account of results in ChEMBL document CHEMBL3045943, “Novel N-aryl(alkaryl)-2-[(3-R-2-oxo-2H-[1,2,4]triazino[2,3-c]quinazoline-6-yl)thio]acetamides: synthesis, cytotoxicity, anticancer activity, COMPARE analysis and docking” (2013).

Format in all cases: functional
One assay relates to NCI-H522. Briefly: Cytotoxicity against Homo sapiens (human) NCI-H522 cells assessed as cell growth at 10 uM after 48 hr by SRB assay relative to control. To be noted: NCI-H522, 48 h, read-out: Activity. In general terms: Sulforhodamine B stains cellular protein and so reports cell mass.
The subject of assay [1] is Photobacterium leiognathi. Put plainly: Growth inhibition of Photobacterium leiognathi Sh1 assessed as bio-luminescence at 0.025 mg/ml after 16 to 18 hr by chronic action test relative to control. Further details: scale not given: the % may be the effect or the level left.
For assay [2], the system named is Photobacterium leiognathi. Put plainly: Growth inhibition of Photobacterium leiognathi Sh1 assessed as bio-luminescence at 0.025 mg/ml after 10 min by acute action test relative to control. More on the design: scale not given: the % may be the effect or the level left.
The test system of assay [3] is Photobacterium leiognathi. Briefly: Growth inhibition of Photobacterium leiognathi Sh1 assessed as bio-luminescence at 0.1 mg/ml after 16 to 18 hr by chronic action test relative to control. Further details: scale not given: the % may be the effect or the level left.
For the next assay, the system named is UO-31. Put plainly: Cytotoxicity against Homo sapiens (human) UO31 cells assessed as cell growth at 10 uM after 48 hr by SRB assay relative to control. To be noted: UO-31, 48 h, read-out: Activity.
The test system of assay [4] is Photobacterium leiognathi. Put plainly: Growth inhibition of Photobacterium leiognathi Sh1 assessed as bio-luminescence at 0.25 mg/ml after 16 to 18 hr by chronic action test relative to control. Further details: scale not given: the % may be the effect or the level left.
The test system of assay [5] is Photobacterium leiognathi. Put plainly: Growth inhibition of Photobacterium leiognathi Sh1 assessed as bio-luminescence at 0.1 mg/ml after 10 min by acute action test relative to control. More on the design: scale not given: the % may be the effect or the level left.
Assay [6] relates to Photobacterium leiognathi. Briefly: Growth inhibition of Photobacterium leiognathi Sh1 assessed as bio-luminescence at 0.25 mg/ml after 10 min by acute action test relative to control. More on the design: scale not given: the % may be the effect or the level left.
Another assay deals with MDA-MB-435. Briefly: Cytotoxicity against Homo sapiens (human) MDA-MB-435 cells assessed as cell growth at 10 uM after 48 hr by SRB assay relative to control. To be noted: MDA-MB-435, 48 h, read-out: Activity.
In another assay the test system is OVCAR-3. Briefly: Cytotoxicity against Homo sapiens (human) OVCAR3 cells assessed as cell growth at 10 uM after 48 hr by SRB assay relative to control. To be noted: OVCAR-3, 48 h, read-out: Activity.
A further assay relates to SF-539. Briefly: Cytotoxicity against Homo sapiens (human) SF539 cells assessed as cell growth at 10 uM after 48 hr by SRB assay relative to control. The note with it: SF-539, 48 h, read-out: Activity.
The next assay deals with LOX IMVI. Put plainly: Cytotoxicity against Homo sapiens (human) LOXIMVI cells assessed as cell growth at 10 uM after 48 hr by SRB assay relative to control. To be noted: read-out: Activity.
The test system of the next assay is HCT-116. Briefly: Cytotoxicity against Homo sapiens (human) HCT116 cells assessed as cell growth at 10 uM after 48 hr by SRB assay relative to control. To be noted: HCT-116, 48 h, read-out: Activity.
The next assay has as its system SR. Briefly: Cytotoxicity against Homo sapiens (human) SR cells assessed as cell growth at 10 uM after 48 hr by SRB assay relative to control. The note with it: read-out: Activity.
A further assay concerns HOP-92. Put plainly: Cytotoxicity against Homo sapiens (human) HOP92 cells assessed as cell growth at 10 uM after 48 hr by SRB assay relative to control. To be noted: HOP-92, 48 h, read-out: Activity.
Assay [7] in a line: Cytotoxicity against Homo sapiens (human) […] cells assessed as cell growth at 10 uM after 48 hr by SRB assay relative to control. The note with it: read-out: Activity.
In a further assay the test system is MOLT-4. Put plainly: Cytotoxicity against Homo sapiens (human) MOLT4 cells assessed as cell growth at 10 uM after 48 hr by SRB assay relative to control. To be noted: MOLT-4, 48 h, read-out: Activity.
The subject of the next assay is K562. Briefly: Cytotoxicity against Homo sapiens (human) K562 cells assessed as cell growth at 10 uM after 48 hr by SRB assay relative to control. The note with it: K562, 48 h, read-out: Activity.
Another assay has as its system HL-60(TB). Briefly: Cytotoxicity against Homo sapiens (human) HL-60(TB) cells assessed as cell growth at 10 uM after 48 hr by SRB assay relative to control. The note with it: HL-60, 48 h, read-out: Activity.
The subject of another assay is CCRF-CEM. Put plainly: Cytotoxicity against Homo sapiens (human) CCRF-CEM cells assessed as cell growth at 10 uM after 48 hr by SRB assay relative to control. The note with it: read-out: Activity.
The test system of another assay is SNB-75. Briefly: Cytotoxicity against Homo sapiens (human) SNB75 cells assessed as cell growth at 10 uM after 48 hr by SRB assay relative to control. To be noted: SNB-75, 48 h, read-out: Activity.
Another assay has as its system U-251. Briefly: Cytotoxicity against Homo sapiens (human) U251 cells assessed as cell growth at 10 uM after 48 hr by SRB assay relative to control. The note with it: U-251, 48 h, read-out: Activity.

On to `Cc1ccc(-c2nn3c(SCC(=O)Nc4ccccc4C(=O)O)nc4ccccc4c3nc2=O)cc1`, for which, in the assay on NCI-H522, the growth at 10 µM was 78.2%.

Regarding `Cc1nn2c(SCC(=O)NCc3cccc(C(F)(F)F)c3)nc3ccccc3c2nc1=O`, the Activity in assay [1] is recorded as 123.6%; in assay [2] it was 66.7%; in assay [3], 92.3%; in assay [4], 193.3%; in [5] it was 75%; in assay [6] it was 100%. Further, the growth at 10 µM with UO-31 worked out at 54.5%.

On to `Cc1nn2c(SCC(=O)NCc3ccc(F)cc3)nc3ccccc3c2nc1=O`, for which the Activity in assay [1] turned out to be 118.2%; in assay [2], 77.8%; in assay [3], 123.1%; in assay [4], 200%; in assay [5] it was 78.8%; in assay [6], 91.7%. Besides, the growth at 10 µM in the assay with UO-31 came out at 61.6%.

Turning to `Cc1nn2c(SCC(=O)NCc3ccccc3Cl)nc3ccccc3c2nc1=O`, the Activity in [1] is given as 148.9%; in assay [2], 91.7%; in [3] it was 180.9%; in assay [4], 125%; in assay [5] it was 110%; in [6], 142.9%. Also, the growth at 10 µM was 79.8% in the assay with MDA-MB-435 and 79.9% in the assay with NCI-H522.

Consider `O=C(CSc1nc2ccccc2c2nc(=O)c(-c3ccccc3)nn12)NCc1ccccc1Cl`, for which the Activity in assay [1] is given as 93%; in [2] it was 108.3%; in assay [3], 133.3%; in assay [4], 110%; in [5], 80%; in [6], 155%. Moreover, the growth at 10 µM with OVCAR-3 was 47.9%; in the assay on SF-539, 9.93%; in the assay on LOX IMVI, 27.9%; in the assay with HCT-116, 7.01%; with SR, 47.4%; in the assay with HOP-92 it was 44.8%. In addition, the growth at 10 µM in the assay with NCI-H522 came out at 43.2%.

Regarding `Cc1nn2c(SCC(=O)NCCc3ccccc3)nc3ccccc3c2nc1=O`, the Activity in assay [1] turned out to be 136.4%; in [2], 72.2%; in assay [3], 100%; in assay [4] it was 133.3%; in [5], 87.5%; in assay [6], 100%. Also, the growth at 10 µM with UO-31 amounted to 77.3%.

For `Cc1ccc(-c2nn3c(SCC(=O)Nc4cccc(C(F)(F)F)c4)nc4ccccc4c3nc2=O)cc1`, the Activity in [1] is listed as 118.2%; in [2], 61.1%; in assay [3], 81.5%; in assay [4], 200%; in assay [5], 78.8%; in [6] it was 83.3%. Also, the growth at 10 µM with SF-539 was 80.8%; with SR it was 66.5%; in the assay with HOP-92, 71%.

In the case of `Cc1ccc(-c2nn3c(SCC(=O)Nc4ccccc4F)nc4ccccc4c3nc2=O)cc1`, the growth at 10 µM was 94.4% in [7]; 82.3% with MOLT-4; 77.5% in the assay on K562; 73.7% in the assay with SR; 84.4% in the assay on HL-60(TB); 76.8% in the assay with CCRF-CEM. Moreover, the Activity in assay [1] was 112.5%; in [2], 89.86%; in [3] it was 87.5%; in [4], 100%; in [5], 86.96%; in [6], 47.83%.

Turning to `Cc1nn2c(SCC(=O)Nc3cccc(Cl)c3)nc3ccccc3c2nc1=O`, the Activity in assay [1] was determined as 185.2%; in [2], 99.3%; in assay [3], 250%; in assay [4], 42.9%; in assay [5] it was 99.1%; in assay [6], 104.5%. Besides, the growth at 10 µM with K562 stood at 57.2%.

For the compound `Cc1ccc(-c2nn3c(SCC(=O)Nc4ccccc4C)nc4ccccc4c3nc2=O)cc1`, the Activity amounted to 100% in assay [1]; 119.7% in assay [2]; 66.7% in assay [3]; 93.3% in [4]; 109.7% in assay [5]; 193.5% in assay [6]. For the same compound, the growth at 10 µM in the assay on SNB-75 was 46.7%; in the assay on U-251, 63.5%; in the assay on CCRF-CEM it was -49.6%.

As to `COc1ccc(NC(=O)CSc2nc3ccccc3c3nc(=O)c(-c4ccc(C)cc4)nn23)cc1`, the Activity was 95.6% in [1]; 88.3% in [2]; 117% in assay [3]; 75% in assay [4]; 106% in [5]; 142.9% in assay [6]. The growth at 10 µM came out at 61.1% in the assay on U-251 and 57.9% with NCI-H522.

As to `COc1ccc(-c2nn3c(SCC(=O)Nc4ccccc4C(F)(F)F)nc4ccccc4c3nc2=O)cc1`, the growth at 10 µM in assay [7] stood at 85.1%. The Activity stood at 185.2% in [1]; 97.8% in assay [2]; 200% in assay [3]; 102.9% in [4]; 106.5% in assay [5]; 113.4% in [6].
